From BigSolDB 2.1

O=C(NC(Cc1cc(=O)[nH]c2ccccc12)C(=O)O)c1ccc(Cl)cc1 (stereo not given)
solubility (mole fraction)
Conditions | 278.15 K | 283.15 K | 288.15 K | 293.15 K | 298.15 K | 303.15 K | 308.15 K | 313.15 K | 318.15 K
in ethanol | 6.26e-05 | 6.92e-05 | 7.65e-05 | 8.61e-05 | 9.66e-05 | 0.000107 | 0.000118 | 0.000131 | 0.000143
in isopropanol | 2.41e-05 | 3.02e-05 | 3.87e-05 | 4.8e-05 | 5.92e-05 | 7.31e-05 | 8.91e-05 | 0.000107 | 0.000129
in n-propanol | 4.25e-05 | 5.08e-05 | 6e-05 | 7.03e-05 | 8.1e-05 | 9.38e-05 | 0.000107 | 0.000123 | 0.00014
in propylene glycol | 0.000182 | 0.000192 | 0.000207 | 0.000225 | 0.000247 | 0.000269 | 0.000293 | 0.000319 | 0.00035
in water | 3.46e-07 | 4.26e-07 | 5.29e-07 | 6.84e-07 | 8.68e-07 | 1.08e-06 | 1.3e-06 | 1.56e-06 | 1.87e-06
